The values that follow come from patent US5373009A, “Dibenzofuranyl esters of N-heterocyclic carboxylic acids” (priority 1994, dated 1994).

The test system of one assay is CEH. As to conditions: prior art statement; cited from earlier work.
In assay [1] the target is T1, cholesterol ester hydrolase (CEH) (Bos taurus, UniProt P30122).
T1 construct: purchased Sigma Company, St. Louis, Mo., U.S.A. C-1892; host or cells: bovine pancreas
As to the kind of experiment: In vitro inhibition of cholesteryl ester formation by cholesterol esterase (CEH). The settings on record: 37° C.; cholesterol and oleic acid; cholesterol esterase from bovine pancreas. The format is biochemical. On the procedure:
The ability of the compounds of this invention to inhibit the formation of cholesteryl esters and thereby interfere with and prevent assimilation of cholesterol into the lymphatic system and ultimately the blood stream was established by incubating the compounds at 37° C. with a mixture of cholesterol and oleic acid in the presence of buffered cholesterol esterase [(EC 3.1.1.13) Sigma Company, St. Louis, Mo., U.S.A., No. C-1892, from bovine pancreas] and measuring the amount of ester formed, according to the procedure of Field, J. of Lipid Research, 25, 389 (1984).

For assay [2], the system named is absorption of 14C-cholesterol. As to the kind of experiment: In vivo cholesterol absorption in normal rats (serum radioactivity after oral [4-14C] cholesterol). The settings on record: serum radioactivity at 6 hr, vs control. On the procedure: The in vivo cholesterol absorption studies were conducted in normal rats by oral administration of the compound being tested in propylene glycol and olive oil followed by oral administration of [4-^14 C] cholesterol in propylene glycol and olive oil, otherwise following the procedure of Cayen et al., J. Lipid Res. 20, 162 (1979). The serum radioactivity was measured at six hours after dosing. The results of this study are reported in Table I as percent decrease compared to control.

T1 sequence (P30122 19-597): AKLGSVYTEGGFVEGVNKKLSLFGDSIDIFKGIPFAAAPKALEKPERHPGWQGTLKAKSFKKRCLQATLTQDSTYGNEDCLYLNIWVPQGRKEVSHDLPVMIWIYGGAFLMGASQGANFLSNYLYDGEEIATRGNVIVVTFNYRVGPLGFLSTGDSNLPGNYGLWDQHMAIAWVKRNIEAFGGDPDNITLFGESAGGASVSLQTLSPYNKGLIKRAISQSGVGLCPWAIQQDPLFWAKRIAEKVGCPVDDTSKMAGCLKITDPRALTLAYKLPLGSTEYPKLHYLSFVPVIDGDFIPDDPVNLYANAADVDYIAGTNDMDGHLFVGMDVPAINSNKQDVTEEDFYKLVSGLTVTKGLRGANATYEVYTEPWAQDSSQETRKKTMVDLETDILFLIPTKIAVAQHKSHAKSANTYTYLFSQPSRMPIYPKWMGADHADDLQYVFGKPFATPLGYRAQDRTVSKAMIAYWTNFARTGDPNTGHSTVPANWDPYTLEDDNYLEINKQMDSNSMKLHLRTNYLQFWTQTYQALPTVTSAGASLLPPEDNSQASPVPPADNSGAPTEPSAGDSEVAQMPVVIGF

Consider `CNC(=O)OC1CCN(C(=O)Oc2ccc(Oc3ccccc3)cc2)CC1` [4-[[methylamino)carbonyl]oxy]-1-piperidinecarboxylic acid 4-phenoxyphenyl ester], for which, in the assay with CEH, the “CEH inhibitor (in words)” value was “CEH inhibitor”. `O=C(Oc1ccc2oc3ccccc3c2c1)N1CCSCC1` [Example 2, 4-Thiomornholinecarboxylic acid 2-dibenzofuranyl ester] yielded an IC50 in assay [1] of 0.51 µM. The “Effect on Absorption of ^14 C-chol-6 hr-normal rat, % Decrease” value (“Effect on Absorption … % Decrease” for short) in assay [2] (10 mg/kg) was 16%. `CC1(C)CCN(C(=O)Oc2ccc3oc4ccccc4c3c2)CC1` [Example 3, 4,4-Dimethyl-1-piperidinecarboxylic acid 2-dibenzofuranyl ester]: in assay [1], inhibition was half-maximal at 6.5 µM (IC50). For the same compound, in assay [2] (3 mg/kg), the “Effect on Absorption … % Decrease” value stood at 44%. In assay [1], `O=C(Oc1ccc2oc3ccccc3c2c1)N1CCC2(CCCC2)CC1` [Example 4, 8-Azaspiro[4,5]decane-8-carboxylic acid 2-dibenzofuranyl ester] showed an IC50 of 15 µM. For the same compound, the “Effect on Absorption … % Decrease” value in assay [2] (3 mg/kg) amounted to 55%.
